Counter-ions that a name gives are not always drawn.
Legend:
[1] = Pharmacokinetics of orally administered squalamine (ENT-01) in Stage 1; type: in vivo, human; conditions: oral dosing
Method: PK data were collected on the 10 patients enrolled in Stage 1 and 10 patients enrolled in Stage 2 to determine the extent of systemic absorption. In Stage 1, PK data were obtained at each visit, pre-medication, at 1, 2, 4, 8 and 24 hours (Table 10). In Stage 2, PK was measured on days 1 and 6 of the randomization period pre-medication, at 1, 2, 4 and 8 hours (Table 11).
The mean Cmax, Tmax and T1/2 and AUC of the squalamine ion following squalamine (ENT-01) oral dosing for Stage 1 patients. The PK analyses are only approximate, as the lower limit of the validated concentration range was 10 ng/ml; most of the measured concentrations fell below that value. The mean Cmax, Tmax and T1/2 and AUC of the squalamine ion following squalamine (ENT-01) oral dosing for Stage 2 patients. The PK analyses are only approximate, as the lower limit of the validated concentration range was 0.5 ng/ml.

[2] = system: mouse models of PD; conditions: cited from earlier work
[3] = system: IPANs (intrinsic primary afferent neuron); conditions: perfusion through lumen of isolated bowel segment; cited from earlier work
[4] = systemic administration, mice; into the duodenum through the biliary tract; cited from earlier work
[5] = system: patients with PD and constipation; assay: Phase 2 trial Stage 2: bowel function under daily oral dosing (escalation, fixed dose, wash-out); type: in vivo, human; conditions: patients with baseline ≥1 CSBM/week
Method: Following successful screening, all subjects underwent a 14-day run-in period where the degree of constipation was assessed through a validated daily log (Zinsmeister et al. 2013) establishing baseline CSBMs/week. Subjects with an average of <3 CSBMs/week proceeded to dosing.
In Stage 2, 34 patients were evaluated.
The primary efficacy outcome variable was whether or not a subject was a “success” or “failure”. This is an endpoint based on subject diary entries for the “fixed dose” period prior to the endpoint assessment defined as average complete stool frequency increase by 1 or more over baseline, or 3 or more complete spontaneous stools/week. The subject was deemed a “success” if s/he met one or more of the criteria listed above, otherwise the subject was deemed a “failure”. The primary analysis was based on all subjects with a baseline assessment and an assessment at the end of the “fixed-dose” period and was a comparison of the proportion of successes with 0.10 (the null hypothesis corresponding to no treatment effect).

[6] = system: C. elegans model of PD; conditions: C. elegans model; cited from earlier work
[7] = single and repeat intravenous administration, alone or in combination with other agents; cited from earlier work

SMILES | systemic absorption [1] | gastro-intestinal motility ([2]; orally administered, mice with constipation due to overexpression of human αS (West et al)) | gastrointestinal dysmotility ([2]; several mouse models of PD) | effect on IPANs [3] | clearance and excretion [4] | mean dose required for a bowel response (prokinetic dose) [5] [mg] | muscle paralysis [6] | well tolerated intravenous dose [7]
CC(C)[C@@H](CC[C@@H](C)[C@H]1CC[C@H]2[C@@H]3[C@H](O)C[C@H]4C[C@@H](NCCCNCCCCN)CC[C@]4(C)[C@H]3CC[C@]12C)OS(=O)(=O)O [squalamine] | not significantly absorbed into the systemic circulation | stimulates gastro-intestinal motility | reverse gastrointestinal dysmotility | excitation of IPANs | cleared by the liver and excreted as the intact molecule | 120 | complete reversal of muscle paralysis | 
CC(C)[C@@H](CC[C@@H](C)[C@H]1CC[C@H]2[C@@H]3[C@H](O)C[C@H]4C[C@@H](NCCCNCCCCN)CC[C@]4(C)[C@H]3CC[C@]12C)OS(=O)(=O)O [squalamine dilactate salt] |  |  |  |  |  |  |  | at least 300 mg/m^2

— patent US20200038412A1, “METHODS OF TREATING ALZHEIMER'S DISEASE USING AMINOSTEROL COMPOSITIONS” (Enterin, Inc., priority 2018, published 2020)
